Patent US6346603B1, “Crystal of depsipeptide derivative and process for producing the same” (Fujisawa Pharmaceutical Co., Ltd., priority 1997, dated 2002)

Columns and labels:
Type in all cases: physicochemical
[1] = Water content after standing at ambient temperature to constant weight; conditions: left to stand at ambient temperature until weight reached constant value
Description: (§1) The crystals (I), (II) and (III) of the depsipeptide derivative (IV), thus recovered in the aforementioned manners, were examined about the filtration properties during crystallization, the specific volume and water content, by using the prior art crystal (V) for comparison.
As to the water content, additionally, each crystal was left to stand at ambient temperature until its weight reached constant value, wherein an amount of water containing in the crystal was measured in %.

[2] = Filtration properties during crystallization, observed with the naked eye; parameters: key: ⊚: very great filtration properties; ◯: good filtration properties; Δ: poor filtration properties; X: very poor filtration properties; conditions: observation with the naked eye
Description: as §1
The filtration properties during crystallization were evaluated on the following standards under observation with the naked eye.
⊚: very great filtration properties
◯: good filtration properties
Δ: poor filtration properties
X: very poor filtration properties

[3] = Fluidity (adhesion properties) of the crystal; conditions: not shown in Table 6; adhesion to machines during production

Row | Water content [1] | Filtration property during crystallization [2] | Fluidity (adhesion properties) [3] | SMILES
1 | 3.16% | × |  | CC(C)CC1C(=O)OC(Cc2ccc(N3CCOCC3)cc2)C(=O)N(C)C(CC(C)C)C(=O)OC(C)C(=O)CCCCN1C (stereo not shown) [Crystal (I)]
2 | 0.98% | ⊚ | great fluidity | CC(C)CC1C(=O)OC(Cc2ccc(N3CCOCC3)cc2)C(=O)N(C)C(CC(C)C)C(=O)OC(C)C(=O)CCCCN1C (stereo not shown) [Crystal (II)]
3 | 0.20% | ◯ |  | CC(C)CC1C(=O)OC(Cc2ccc(N3CCOCC3)cc2)C(=O)N(C)C(CC(C)C)C(=O)OC(C)C(=O)CCCCN1C (stereo not shown) [Crystal (III)]
4 | 2.45% | × | poor fluidity | CC(C)CC1C(=O)OC(Cc2ccc(N3CCOCC3)cc2)C(=O)N(C)C(CC(C)C)C(=O)OC(C)C(=O)CCCCN1C (stereo not shown) [Prior art Crystal (V), reference compound]
